Results reported in patent US6610687B1, “Benzofuranylsulfonates” (Bayer Aktiengesellschaft, priority 1999, dated 2003).

Key:
[1] = target: PMN phosphodiesterase (PDE IV); experiment: Assay of PMN phosphodiesterase; assay type: biochemical; conditions: particulate fraction from human PMN, treated with sodium vanadate/glutathione
Procedure: 4. Assay of PMN Phosphodiesterase
This was performed as a particulate fraction from human PMN essentially as described by Souness and Scott (Biochem. J. 291, 389-395, 1993). Particulate fractions were treated with sodium vanadate/glutathione as described by the authors to express the descrete stereospecific site on the phosphodiesterase enzyme.

human PMN (neutrophils) = experiment: Inhibition of FMLP-stimulated production of superoxide radical anions; assay type: cell-based; conditions: Neutrophil, read-out: IC50 O2^−
Procedure: 1. Preparation of Human PMN
Blood was taken from healthy subjects by venous puncture and neutrophils were purified by dextran sedimentation and resuspended in the buffered medium.
2. Inhibition of FMLP-stimulated Production of Superoxide Racidal Anions.
Neutrophils (2.5×10^5 ml^−1) were mixed with cytochrome C (1.2 mg/ml) in the wells of a microtitre plate. Compounds according to the invention were added in dimethyl sulphoxide (DMSO). Compound concentration ranged from 2.5 nM to 10 μM, the DMSO concentration was 0.1% v/v in all wells. After addition of cytochalasin b (5 μg×ml^−1) the plate was incubated for 5 min at 37° C. Neutrophils were then stimulated by addition of 4×10^−8 M FMLP and superoxide generation measured as superoxide dismutase inhibitable reduction of cytochrome C by monitoring the OD550 in a microtitre plate spectrophotometer, e.g. a thermomax microtitre plate spectrophotometer. Initial rates were calculated using a kinetic calculation programme such as a softmax programme. Blank wells contained 200 units of superoxide dismutase.
The inhibition of superoxide production was calculated as follows: [formula]
Rx=Rate of the well containing the compound according to the invention.
Ro=Rate in the control well.
Rb=Rate in the superoxide dismutase containing blank well.

Row | SMILES | IC50 [1] | IC50 (human PMN (neutrophils))
1 | CN(C)S(=O)(=O)Oc1ccc2c(NC(N)=O)c(C(=O)c3cc(Cl)ccc3Cl)oc2c1 [Example 46] | 6 nM | 35 nM
2 | NC(=O)Nc1c(C(=O)c2ccc(Cl)cc2Cl)oc2cc(OS(=O)(=O)c3cccc4cccnc34)ccc12 [Example 49] | 1 nM | 1 nM
3 | CC(=O)Nc1ccc(S(=O)(=O)Oc2ccc3c(NC(N)=O)c(C(=O)c4ccc(Cl)cc4)oc3c2)cc1 [Example 13] | 21 nM | 65 nM
4 | NC(=O)Nc1c(C(=O)c2ccc(Cl)cc2Cl)oc2cc(OS(=O)(=O)c3ccc(-c4ccccn4)s3)ccc12 [Example 21] | 40 nM | 20 nM

The remaining lines, values ahead:

Row | IC50 [1] | IC50 (human PMN (neutrophils)) | SMILES
5 | 1 nM | 7 nM | Cc1ccc(C(=O)c2oc3cc(OS(=O)(=O)c4cn(C)cn4)ccc3c2NC(N)=O)c(C)c1 [Example 36]
6 | 130 nM | 60 nM | Cc1nn(C)c(Cl)c1S(=O)(=O)Oc1ccc2c(NC(N)=O)c(C(=O)c3ccc(F)cc3F)oc2c1 [Example 24]
7 | 33 nM | 20 nM | NC(=O)Nc1c(C(=O)c2ccc(Cl)cc2Cl)oc2cc(OS(=O)(=O)Cc3ccc(Cl)nc3)ccc12 [Example 47]
